Like-named read-outs stand apart in the source and are kept apart here.
Experiments:
Test in all cases: Synergistic Growth Inhibition Assay (MIC and FIC index, 96-well, resazurin)
Assay type in all cases: cell-based
Sclerotinia sclerotiorum = settings: Sclerotinia sclerotiorum, […], Compound B alone, read-out: MIC (B)
In short: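 Checkerboard of pesticidal active ingredient combined with C6–C10 (or C11/C12) aliphatic acids in serial dilutions against Sclerotinia sclerotiorum. Growth scored by resazurin colour change plus visual inspection; FIC index is the sum of each agent's concentration divided by its MIC alone, with 1 indicating additivity.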

Alternaria solani = settings: Alternaria solani, […], Compound B alone, 7 days incubation, read-out: MIC (B)
Description: In some embodiments, the synergistic action between the pesticidal active ingredient, and the at least one C6-C10 (or alternatively C11 or C12) saturated or unsaturated aliphatic acid components of the pesticidal compositions according to embodiments of the present disclosure was tested using a Synergistic Growth Inhibition Assay, which is derived from and related to a checkerboard assay as is known in the art for testing of combinations of antimicrobial agents. In the Synergistic Growth Inhibition Assay used in accordance with some embodiments of the present disclosure, multiple dilutions of combinations of pesticidal active ingredient and at least one C6-C10 saturated or unsaturated aliphatic acid agents are tested in individual cells for inhibitory activity against a target pest or pathogenic organism. In one such embodiment, the combinations of pesticidal active ingredient and C6-C10 (or alternatively C11 or C12) saturated or unsaturated aliphatic acid agents may preferably be tested in decreasing concentrations. In a further such embodiment, the combinations of pesticidal active ingredient and C6-C10 (or alternatively C11 or C12) saturated or unsaturated aliphatic acid agents may be tested in increasing concentrations. These multiple combinations of the pesticidal active ingredient and at least one C6-C10 (or alternatively C11 or C12) saturated or unsaturated aliphatic acid agents may be prepared in 96-well microtiter plates. In one such embodiment, the Synergistic Growth Inhibition Assay then comprises rows which each contain progressively decreasing concentrations of the pesticidal active ingredient and one or more C6-C10 (or alternatively C11 or C12) saturated or unsaturated aliphatic acid agents to test for the MIC of the agents in combination at which growth of the target pest or pathogen is inhibited. Thus, each well of the microtiter plate is a unique combination of the two agents, at which inhibitory efficacy of the combination against the target pest or pathogen can be determined.
In one embodiment according to the present disclosure, for each row of microtiter cells in the Synergistic Growth Inhibition Assay, the FIC index is calculated from the lowest concentration of the pesticidal active ingredient and one or more C6-C10 saturated or unsaturated aliphatic acid agents necessary to inhibit growth of a target pest or pathogen. The FIC of each component is derived by dividing the concentration of the agent present in that well of the microtiter plate by the minimal inhibitory concentration (MIC) needed of that agent alone to inhibit growth of the target pest or pathogen. The FIC index is then the sum of these values for both agents in that well of the microtiter plate. […] Fractional inhibitory concentration indices may then used as measure of synergy. […] When the FIC index is equal to 1, the combination is additive.
Then, serial dilutions of these initial compositions in successive wells in the row of the microtiter plate were used to assay the pesticidal composition under the same conditions to determine the concentration of the composition combining the two agents corresponding to the microtiter well in which growth inhibition of the target pest or organism ceases.
A culture of the representative fungal pathogen, namely Fusarium oxysporum, Botrytis cinerea, or Sclerotinia sclerotiorum, for example, is grown to exponential phase in potato dextrose broth (PDB).

Fusarium oxysporum = settings: Fusarium oxysporum, Compound B alone
In short: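 Checkerboard dilutions of pesticidal active plus C6–C10 (or C11/C12) aliphatic acid in 96-well plates; growth scored by resazurin colour change, optionally visual.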

Botrytis cinerea = settings: Botrytis cinerea, 48 h, Compound B alone, 48 hours incubation, read-out: MIC (B)
In short: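 Checkerboard microdilution of pesticidal active ingredient combined with C6–C10 (or C11/C12) aliphatic acid against Botrytis cinerea, with growth read by resazurin colour change plus visual check. FIC index = sum of each agent's concentration in the inhibiting well divided by its MIC alone; 1 denotes additivity.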

[1] = 48 h, Table 28, 48 hours incubation, read-out: MIC (B)
[2] = 48 h, Table 30, 48 hours incubation, read-out: MIC (B)
[3] = 48 h, Table 32, 48 hours incubation, read-out: MIC (B)
[4] = 24 h, Table 3, 24 hour incubation, read-out: MIC(B)
[5] = 24 h, Table 4, 24 hour incubation, read-out: MIC (B)
[6] = 48 h, Table 27, 48 hours incubation, read-out: MIC (B)
[7] = 24 h, Table 1, 24 hour incubation, read-out: MIC(B)
[8] = 24 h, Table 2, 24 hour incubation, read-out: MIC (B)

MIC (Sclerotinia sclerotiorum; 7 days incubation) [µg/mL] | MIC (Sclerotinia sclerotiorum; Table 33, 7 days incubation) [µg/mL] | MIC (Sclerotinia sclerotiorum; Table 36, 7 days incubation) [µg/mL] | MIC (Sclerotinia sclerotiorum; Table 37, 7 days incubation) [µg/mL] | MIC (Sclerotinia sclerotiorum; Table 38, 7 days incubation) [µg/mL] | MIC (Sclerotinia sclerotiorum; Table 39, 7 days incubation) [µg/mL] | MIC (Sclerotinia sclerotiorum; Table 40, 7 days incubation) [µg/mL] | MIC (Sclerotinia sclerotiorum; Table 41, 7 days incubation) [µg/mL] | MIC (Alternaria solani) [µg/mL] | MIC (Alternaria solani; Table 60) [µg/mL] | MIC (Fusarium oxysporum; [2]) [µg/mL] | MIC (Fusarium oxysporum; [3]) [µg/mL] | MIC (Botrytis cinerea; Table 43) [µg/mL] | MIC (Botrytis cinerea; Table 44) [µg/mL] | MIC (Botrytis cinerea; Table 45) [µg/mL] | MIC (Botrytis cinerea; Table 47) [µg/mL] | MIC (Botrytis cinerea; Table 49) [µg/mL] | MIC (Botrytis cinerea; Table 56) [µg/mL] | MIC (Sclerotinia sclerotiorum; Table 35, 7 days incubation) [µg/mL] | MIC (Botrytis cinerea; Table 58) [µg/mL] | Structure (SMILES) | also measured
78.1 | 19.5 | 39.1 | 78.1 | 39.1 | 19.5 | 19.5 | 39.1 | 156 | 78.1 | 312 | 312 | 78.1 | 39.1 | 39.1 | 78.1 | 156 | 156 | – | – | CCCCCC/C=C/C(=O)O [Trans-2-nonenoic acid] | MIC (Fusarium oxysporum; [1]): 156 µg/mL; MIC (Botrytis cinerea; Table 46): 19.5 µg/mL
19.5 | 19.5 | – | 39.1 | 19.5 | 19.5 | 19.5 | – | 39.1 | 78.1 | 78.1 | 156 | 19.5 | 78.1 | 39.1 | – | 78.1 | 78.1 | 9.77 | 156 | CCCCCCC/C=C/C(=O)O [Trans-2-decenoic acid, trans-2-decenoic acid] | MIC (Sclerotinia sclerotiorum; Table 34, 7 days incubation): 19.5 µg/mL; MIC (Sclerotinia sclerotiorum; Table 42, incubation 7 days): 19.5 µg/mL; MIC (Fusarium oxysporum; [4]): 36.2 µg/mL; MIC (Fusarium oxysporum; [5]): 36.2 µg/mL; MIC (Botrytis cinerea; Table 50): 39.1 µg/mL; MIC (Botrytis cinerea; Table 51): 19.5 µg/mL
– | – | – | – | – | – | – | – | 2500 | – | – | – | – | – | – | – | – | 5000 | – | – | CCCC(O)CC(=O)O (centres unmarked) [3-Hydroxyhexanoic acid, 3-hydroxyhexanoic acid] | MIC (Sclerotinia sclerotiorum; Table 16, incubation 7 days): 5000 µg/mL; MIC (Sclerotinia sclerotiorum; Table 20B, incubation 7 days): 2500 µg/mL; MIC (Fusarium oxysporum; 48 h, Table 15B, incubation 48 hours, read-out: MIC (B)): 2500 µg/mL; MIC (Botrytis cinerea; Table 51): 2500 µg/mL; MIC (Botrytis cinerea; Table 59): 2500 µg/mL
78.1 | 39.1 | 39.1 | 156 | 78.1 | 39.1 | 78.1 | 78.1 | – | 39.1 | 156 | 78.1 | 156 | 78.1 | 78.1 | 78.1 | 156 | 78.1 | 39.1 | 156 | C=CCCCCCCCC(=O)O [9-Decenoic acid, 9-decenoic acid] | MIC (Fusarium oxysporum; [4]): 71.7 µg/mL; MIC (Fusarium oxysporum; [5]): 71.7 µg/mL; MIC (Fusarium oxysporum; [6]): 312 µg/mL; MIC (Fusarium oxysporum; [1]): 312 µg/mL; MIC (Botrytis cinerea; Table 46): 39.1 µg/mL; MIC (Botrytis cinerea; Table 48): 78.1 µg/mL; MIC (Botrytis cinerea; Table 50): 39.1 µg/mL; MIC (Botrytis cinerea; Table 54): 78.1 µg/mL
– | 19.5 | – | – | 39.1 | 39.1 | – | 39.1 | – | 156 | – | 156 | 156 | 78.1 | 78.1 | 78.1 | 78.1 | 39.1 | – | 156 | CCCCCCCC/C=C/C(=O)O [Trans-2-undecenoic acid] | MIC (Botrytis cinerea; Table 48): 78.1 µg/mL; MIC (Botrytis cinerea; Table 50): 39.1 µg/mL
39.1 | – | – | – | – | – | – | – | – | 156 | – | – | – | – | – | – | – | – | – | – | CCCCCCCCC(=O)O [Nonanoic acid, nonanoic acid] | MIC (Sclerotinia sclerotiorum; Table 16, incubation 7 days): 19.5 µg/mL; MIC (Sclerotinia sclerotiorum; Table 17, incubation 7 days): 78.1 µg/mL; MIC (Sclerotinia sclerotiorum; Table 19, incubation 7 days): 78.1 µg/mL; MIC (Sclerotinia sclerotiorum; Table 20A, incubation 7 days): 39.1 µg/mL; MIC (Fusarium oxysporum; 48 h, Table 12, incubation 48 hours, read-out: MIC (B)): 312 µg/mL; MIC (Botrytis cinerea; Table 24): 156 µg/mL
78.1 | 19.5 | 39.1 | 78.1 | 78.1 | – | – | 39.1 | – | 78.1 | – | 156 | 78.1 | 78.1 | 78.1 | 78.1 | 78.1 | – | 39.1 | – | CCCCCC=CCC(=O)O [3-Nonenoic acid] | MIC (Botrytis cinerea; Table 48): 78.1 µg/mL; MIC (Botrytis cinerea; Table 54): 78.1 µg/mL
312 | 156 | – | – | – | – | – | 156 | – | 312 | 312 | – | 156 | 156 | 312 | – | – | – | 156 | – | CC/C=C/CC(=O)O [Trans-3-hexenoic acid, trans-3-hexenoic acid] | MIC (Sclerotinia sclerotiorum; Table 34, 7 days incubation): 156 µg/mL; MIC (Fusarium oxysporum; [7]): 312 µg/mL; MIC (Fusarium oxysporum; [8]): 312 µg/mL; MIC (Fusarium oxysporum; [6]): 312 µg/mL; MIC (Fusarium oxysporum; [1]): 312 µg/mL; MIC (Fusarium oxysporum; 48 h, Table 31, 48 hours incubation, read-out: MIC (B)): 156 µg/mL

Structure (SMILES) | MIC (Sclerotinia sclerotiorum; 7 days incubation) [µg/mL] | MIC (Sclerotinia sclerotiorum; Table 33, 7 days incubation) [µg/mL] | MIC (Sclerotinia sclerotiorum; Table 36, 7 days incubation) [µg/mL] | MIC (Sclerotinia sclerotiorum; Table 37, 7 days incubation) [µg/mL] | MIC (Sclerotinia sclerotiorum; Table 38, 7 days incubation) [µg/mL] | MIC (Sclerotinia sclerotiorum; Table 39, 7 days incubation) [µg/mL] | MIC (Sclerotinia sclerotiorum; Table 40, 7 days incubation) [µg/mL] | MIC (Sclerotinia sclerotiorum; Table 41, 7 days incubation) [µg/mL] | MIC (Alternaria solani) [µg/mL] | MIC (Alternaria solani; Table 60) [µg/mL] | MIC (Fusarium oxysporum; [2]) [µg/mL] | MIC (Fusarium oxysporum; [3]) [µg/mL] | MIC (Botrytis cinerea; Table 43) [µg/mL] | MIC (Botrytis cinerea; Table 44) [µg/mL] | MIC (Botrytis cinerea; Table 45) [µg/mL] | MIC (Botrytis cinerea; Table 47) [µg/mL] | MIC (Botrytis cinerea; Table 49) [µg/mL] | MIC (Botrytis cinerea; Table 56) [µg/mL] | MIC (Sclerotinia sclerotiorum; Table 35, 7 days incubation) [µg/mL] | MIC (Botrytis cinerea; Table 58) [µg/mL] | also measured
C/C=C/C=C/C(=O)O [(2E,4E)-2,4-hexadienoic acid] | – | 125 | – | – | – | – | – | – | – | 125 | – | – | 62.5 | 62.5 | – | – | – | 125 | – | 250 | MIC (Fusarium oxysporum; [7]): 125 µg/mL; MIC (Fusarium oxysporum; [8]): 125 µg/mL; MIC (Fusarium oxysporum; [6]): 25 µg/mL

Reference: US11839212B2, “Synergistic pesticidal compositions and methods for delivery of insecticidal active ingredients” (0903608 B.C. Ltd., priority 2018, dated 2023)
